Source: patent publication US6723364B1, “Fog treatment method using a liquid composition for treating fruits and vegetables and implementing device” (Xeda International, priority 1998, dated 2004)
Values after ≈ are worked out from the molar mass of the structure shown.

Assays:
Erwinia carotovora = assay: Bactericidal activity in vitro in LB agar medium; assay type: cell-based; details: 28° C.; for MIC: Pectobacterium carotovorum, Erwinia sp., read-out: MIC (concentration needed to completely inhibit the growth of the bacteria)
Experimental: (§1) The bactericidal activity of eugenol and isoeugenol was evaluated in vitro and compared with that of other terpenes.
(§2) The culture medium used is the following LB medium:
(§3) Bactotryptone: 1% by weight
(§4) Yeast extract: 0.5% by weight
(§5) A suspension of bacteria at 10^6 CFU/ml was prepared in sterilized water from the LB medium. 200 μl of this bacterial suspension were added to 20 ml of presterilized LB culture medium brought to 55° C. The tested terpene is then added to the culture medium. After agitation, the medium is immediately divided among Petri dishes. The medium solidifies on cooling.
(§6) Incubation is carried out at 28° C. when the bacterium is Erwinia carotovora and at 37° C. when the bacterium is Escherichia coli.
(§7) The growth of mould in the culture medium is observed. The same experiment is carried out in the absence of terpene (control experiment).
The results are evaluated using the following assessment scale:
++: mould growth identical to the control
+: mould present with a marked reduction in growth with respect to the control
: complete absence of growth.
The results obtained for 3 different concentrations, namely 20, 80 and 320 μg/ml, in the case of the bacterium Erwinia carotovora are summarized in Table 7.
(§8) The protocol used is that described above.

Fusarium oxysporum = assay: Germination of the spores in vitro; assay type: cell-based; details: FO;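 also: ++ germination like control and 0 no spores germinated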
Experimental: (§9) The activity of eugenol and of isoeugenol on the germination of the spores was evaluated in vitro and compared with that of other terpenes.
(§10) The procedure of Example 4 is used to do this, except that the concentration of eugenol and of isoeugenol was set at x μg/ml in the culture media used and that 50 μl of a suspension of spores, adjusted to 100,000 spores/ml, are deposited in each Petri dish.
(§11) The same experiment was carried out starting with a terpene-free culture medium (control test).
(§12) The results were evaluated using the following assessment criteria:
(§13) +: considerable reduction in the level of spores germinated
(§14) The results obtained for 3 different concentrations of terpenes in the culture medium, namely 40 μg/ml, 80 μg/ml and 1280 μg/ml, are listed in Tables 4, 5 and 6.

Alternaria alternata = assay: Germination of the spores in vitro; assay type: cell-based; details: AA;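 also: ++ germination like control and 0 no spores germinated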
Experimental: as §9, §10, §11, §12, §13, §14

[1] = test system: Phlyctaena vagabonda (“Gloeosporium”); assay: Germination of the spores in vitro; assay type: cell-based; details: PV;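 also: ++ germination like control and 0 no spores germinated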
Experimental: as §9, §10, §11, §12, §13, §14

Geocrichum candidum = assay: Germination of the spores in vitro; assay type: cell-based; details: GC
Experimental: as §9, §10, §11, §12, §13, §14

Penicillium expansum = assay: Germination of the spores in vitro; assay type: cell-based; details: PE;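 also: ++ germination like control and 0 no spores germinated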
Experimental: as §9, §10, §11, §12, §13, §14

Botrytis cinerea = assay: Germination of the spores in vitro; assay type: cell-based; details: BC
Experimental: as §9, §10, §11, §12, §13, §14

Phytophtora parasitica = assay: Germination of the spores in vitro; assay type: cell-based; details: PhP
Experimental: as §9, §10, §11, §12, §13, §14

Penicillium digitatum = assay: Germination of the spores in vitro; assay type: cell-based; details: PD
Experimental: as §9, §10, §11, §12, §13, §14

[2] = test system: species of fungus (AA, BC, FO, GC, GR, PD, PE, PV, PhP); assay: Fungicidal activity in vitro: total of inhibition grades over the nine species of fungus; assay type: cell-based; details: sum of the grades over the nine fungi
Experimental: The Cristomalt medium used for the evaluations of the fungicidal activities comprises 0.1% of Cristomalt (malt extract) and 0.2% of agar.
This culture medium is, after sterilization, brought to 55° C. The terpene compound tested is then introduced in the pure form into the culture medium under warm conditions. Immediately after agitating, the medium, enriched with the terpene product, is poured into Petri dishes (diameter 9 cm, filled with 20 ml of medium). The agar-comprising medium solidifies on cooling. The Petri dishes are then inoculated with plugs, with a diameter of 6 mm, withdrawn from the edge of a culture of the tested fungus, which culture is obtained on Cristomalt medium.
Inoculation is carried out at 22° C.
The mycelial growth was determined periodically (5 to 15 days, according to the species of fungus).
The results obtained are analysed simply by using the assessment scale illustrated in Table 2:
The results obtained have been expressed in Table 3 using the scale in Table 2.

Escherichia coli = assay: Bactericidal activity in vitro in LB agar medium; assay type: cell-based; details: Escherichia sp., 37° C., read-out: MIC (concentration needed to completely inhibit the growth of the bacteria)
Experimental: as §1, §2, §3, §4, §5, §6, §7, §8

potato tubers = assay: Sprouting-inhibiting treatment of potato tubers by thermal fogging; assay type: in vivo; details: after 5 months; cold room 8 to 9° C.; 45 g/tonne then 15 g/tonne every 20 days by thermal fogging
Experimental: The effectiveness of eugenol and of isoeugenol in the sprouting-inhibiting treatment of potato tubers was evaluated and compared with that of other terpenes.
The following compositions were used in the case of eucalyptol, eugenol, isoeugenol, limonene, safrole and terpineol:
60% by weight of terpene;
7% by weight of a nonionic emulsifier;
33% by weight of butyl acetate.
In the case of L-carvone, the following composition was employed:
30% by weight of L-carvone;
10% by weight of ethanol;
5% by weight of nonionic emulsifier;
35% by weight of propylene glycol.
Isopropyl chlorophenylcarbamate (CIPC) is a compound used in the art as sprouting inhibitor for potato tubers. Its activity was compared with that of eugenol and of isoeugenol.
The composition based on isopropyl chloro-phenylcarbamate has the following formulation: […]
20% by weight of isopropyl chlorophenyl-carbamate;
50% by weight of propylene glycol;
10% by weight of nonionic emulsifier;
Each of the compositions tested was applied by thermal fogging. The temperature at the outlet of the thermal fogging device was 240° C., except in the case of the compositions based on L-carvone and on CIPC, where it was 180° C.
The amount of composition which has to be applied is calculated in each case so as to obtain an equivalent concentration of active material on the potato tubers.
In this example, repeated applications were carried out by following the following protocol:
45 g/tonne of tubers at the beginning of storage;
15 g/tonne of tubers every 20 days; so that, after 6 months, 165 g of active principle have been applied per tonne of tubers.
During storage, the tubers were stored in a cold room at a temperature of 8 to 9° C.

Compound | growth in the culture medium with respect to the control (Erwinia carotovora; Concentration 20 μg/ml) | growth in the culture medium with respect to the control (Erwinia carotovora; Concentration 80 μg/ml) | growth in the culture medium with respect to the control (Erwinia carotovora; Concentration 320 μg/ml) | MIC (Erwinia carotovora) [µg/mL] | germination of the spores (Fusarium oxysporum; x = 40 μg/ml) | germination of the spores (Fusarium oxysporum; x = 80 μg/ml) | germination of the spores (Fusarium oxysporum; x = 1280 μg/ml) | germination of the spores (Alternaria alternata; x = 40 μg/ml) | germination of the spores (Alternaria alternata; x = 80 μg/ml) | germination of the spores (Alternaria alternata; x = 1280 μg/ml) | germination of the spores ([1]; x = 40 μg/ml) | germination of the spores ([1]; x = 80 μg/ml) | germination of the spores ([1]; x = 1280 μg/ml) | germination of the spores (Geocrichum candidum; x = 40 μg/ml) | germination of the spores (Geocrichum candidum; x = 80 μg/ml) | germination of the spores (Geocrichum candidum; x = 1280 μg/ml) | germination of the spores (Penicillium expansum; x = 40 μg/ml) | germination of the spores (Penicillium expansum; x = 80 μg/ml) | germination of the spores (Penicillium expansum; x = 1280 μg/ml) | germination of the spores (Botrytis cinerea; x = 40 μg/ml) | other results
C=C(C)C1CC=C(C)C(=O)C1 (centres unmarked) [CARVONE, carvone] | ++ | + | − | 80 to 160 (≈ 533 to 1070 µM) | + | 0 | 0 | + | 0 | 0 | + | 0 | 0 | + | 0 | 0 | + | 0 | 0 | + | germination of the spores (Botrytis cinerea; x = 80 μg/ml): 0; germination of the spores (Botrytis cinerea; x = 1280 μg/ml): 0; germination of the spores (Phytophtora parasitica; x = 40 μg/ml): 0; germination of the spores (Phytophtora parasitica; x = 80 μg/ml): 0; germination of the spores (Phytophtora parasitica; x = 1280 μg/ml): 0; germination of the spores (Penicillium digitatum; x = 40 μg/ml): +; germination of the spores (Penicillium digitatum; x = 80 μg/ml): 0; germination of the spores (Penicillium digitatum; x = 1280 μg/ml): 0; Total of the degrees of inhibition [2]: 52; MIC (Escherichia coli): 320 to 640 µg/mL (≈ 2130 to 4260 µM)
CC12CCC(CC1)C(C)(C)O2 [EUCALYPTOL, eucalyptol] | ++ | ++ | ++ | 320 to 640 (≈ 2070 to 4150 µM) | ++ | ++ | 0 | ++ | ++ | 0 | ++ | + | 0 | ++ | + | 0 | + | + | + | ++ | germination of the spores (Botrytis cinerea; x = 80 μg/ml): ++; germination of the spores (Botrytis cinerea; x = 1280 μg/ml): 0; germination of the spores (Phytophtora parasitica; x = 40 μg/ml): ++; germination of the spores (Phytophtora parasitica; x = 80 μg/ml): +; germination of the spores (Phytophtora parasitica; x = 1280 μg/ml): 0; germination of the spores (Penicillium digitatum; x = 40 μg/ml): +; germination of the spores (Penicillium digitatum; x = 80 μg/ml): +; germination of the spores (Penicillium digitatum; x = 1280 μg/ml): +; Loss in weight of the tubers (potato tubers): 3.2%; Total weight of the sprouts >2 mm (potato tubers): 46.2 g; Tubers at the white point stage (potato tubers): 10.2%; Tubers with sprouts 2 to 5 mm (potato tubers): 36.3%; Tubers with sprouts <2 mm (potato tubers): 26.7%; Tubers with sprouts >2 mm (potato tubers): 58.4%; Tubers with sprouts >5 mm (potato tubers): 22.4%; Unsprouted tubers (potato tubers): 4.4%; Total of the degrees of inhibition [2]: 20; MIC (Escherichia coli): > 640 µg/mL
